This passage reports TGI and GI50 results from PubChem BioAssay (NCI).

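Compound exposure: 48 hours, 5 concentrations, 96-well plates. GI50 marks 50% less growth. Definition used: TGI = concentration required for complete inhibition of growth.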 Bounds are passed on as bounds.

Test systems include ACHN renal; HCT-15 colon; HT29 colon; MOLT-4 leukemia; NCI-H226 lung; PC-3 prostate; SF-268 CNS; SF-295 CNS; SK-OV-3 ovarian; SNB-19 CNS.
Assay in all cases: inhibition of tumour cell growth, NCI panel, 48 h

`O=[N+]([O-])c1ccc(/C=N\Nc2ccc([N+](=O)[O-])cn2)cc1`: the TGI with ACHN renal, with HCT-15 colon, with HT29 colon, in the assay on MOLT-4 leukemia, with NCI-H226 lung and in the assay on PC-3 prostate was over 100 µM throughout. In addition, the TGI with SF-268 CNS, in the assay with SF-295 CNS, in the assay with SK-OV-3 ovarian and in the assay on SNB-19 CNS was over 100 µM in each case.
For `COc1ccc2[nH]c3c([N+](=O)[O-])ccc(Cl)c3c(=O)c2c1`, the TGI in the assay with ACHN renal was 29.3 µM; in the assay on HCT-15 colon it was 40.8 µM; with HT29 colon it was 32.2 µM; in the assay on MOLT-4 leukemia it was 12.8 µM; with NCI-H226 lung it was over 100 µM; in the assay on PC-3 prostate, 52.1 µM. Further, the TGI in the assay with SF-268 CNS was 53.6 µM; in the assay on SF-295 CNS it was over 100 µM; in the assay with SK-OV-3 ovarian, over 100 µM; in the assay with SNB-19 CNS it was over 80.9 µM.
Turning to `C=C1CC23CCC4C(C)(C(=O)O)CCCC4(C)C2CCC1C3` (stereo not drawn), the TGI with ACHN renal, in the assay on HCT-15 colon, in the assay with HT29 colon, with NCI-H226 lung, in the assay on PC-3 prostate and in the assay with SF-268 CNS was over 100 µM throughout. In addition, the TGI in the assay on SF-295 CNS, in the assay with SK-OV-3 ovarian and in the assay with SNB-19 CNS was over 100 µM each time.
Consider `c1ccc(-n2cnnc2-c2nsc3ccccc23)cc1`, for which the TGI with ACHN renal, in the assay with HCT-15 colon, in the assay with HT29 colon, in the assay with MOLT-4 leukemia, in the assay on SF-268 CNS and in the assay on SNB-19 CNS was over 100 µM each time.
With `C/C1=N\NC(=O)c2ccccc2C(=O)N/N=C(\C)c2cccc1n2.O=[N+]([O-])[O-].[Zn+2]`, the TGI in the assay with ACHN renal, in the assay with HCT-15 colon, with HT29 colon, with MOLT-4 leukemia, with SF-268 CNS and in the assay with SF-295 CNS was over 100 µM in each case. Further, the TGI in the assay with SK-OV-3 ovarian and in the assay on SNB-19 CNS was over 100 µM in each case.
For `COc1cc(C(C)(C)C)cc(OC)c1C(O)(c1c(OC)cc(C(C)(C)C)cc1OC)c1c(OC)cc(C(C)(C)C)cc1OC`, the GI50 is 0.284 µM in the assay with ACHN renal, 0.224 µM in the assay with HT29 colon and 0.221 µM in the assay on SF-295 CNS. Further, the TGI in the assay with ACHN renal is 0.987 µM; with HT29 colon, 0.877 µM; in the assay on SF-295 CNS, 0.479 µM.
Take `O=C(O)CC(C(=O)O)C1c2ccccc2-c2ccccc21` (stereo not drawn): the TGI in the assay on ACHN renal, with HCT-15 colon, in the assay with HT29 colon, in the assay on MOLT-4 leukemia, in the assay on NCI-H226 lung and with PC-3 prostate was over 100 µM each time. The TGI with SF-268 CNS, with SF-295 CNS, with SK-OV-3 ovarian and in the assay with SNB-19 CNS was over 100 µM each time.
`C=C(C)C1CC2=C(O1)C(=O)c1ccccc1C2=O` (stereo not drawn): the TGI in the assay with HCT-15 colon was 33.2 µM; in the assay with HT29 colon, 38.4 µM; in the assay with MOLT-4 leukemia it was 32.8 µM; with SK-OV-3 ovarian, over 100 µM; in the assay with SNB-19 CNS it was 96.6 µM.
As to `Nc1cc(S(=O)(=O)O)cc2cc(S(=O)(=O)O)c(N=Nc3ccc(-c4ccc(N=Nc5c(S(=O)(=O)O)cc6cc(S(=O)(=O)O)cc(N)c6c5O)cc4)cc3)c(O)c12`, the TGI in the assay with HCT-15 colon, with HT29 colon, with MOLT-4 leukemia, in the assay with NCI-H226 lung, with SF-268 CNS and in the assay on SF-295 CNS was over 100 µM each time. Further, the TGI with SK-OV-3 ovarian and with SNB-19 CNS was over 100 µM each time.
With `C[C@H](C(=O)N[C@@H](Cc1ccc(-c2ccccc2)cc1)C(=O)NC1CC(C)(C)N(C)C(C)(C)C1)c1ccc(-c2ccccc2)c(F)c1`, in the assay with ACHN renal, the GI50 was 1.62 µM and the TGI turned out to be 3.05 µM. Also, in the assay on HCT-15 colon, the GI50 is 1.53 µM and the TGI stood at 2.94 µM.
`C=C(C)[C@@H]1CC[C@]2(C(=O)Nc3ccccn3)CC[C@]3(C)[C@H](CC[C@@H]4[C@@]5(C)CCCNC(C)(C)[C@@H]5CC[C@]43C)[C@@H]12`: the GI50 in the assay with ACHN renal is 2.08 µM; in the assay on HCT-15 colon, 1.61 µM; in the assay on NCI-H226 lung, 5.31 µM; in the assay with PC-3 prostate, 1.99 µM; in the assay with SF-268 CNS, 1.95 µM; in the assay on SF-295 CNS, 1.68 µM. Moreover, the GI50 was 2.94 µM in the assay with SK-OV-3 ovarian and 1.98 µM in the assay on SNB-19 CNS. Moreover, the TGI is 4.64 µM in the assay with ACHN renal; 3.09 µM with HCT-15 colon; 33.4 µM in the assay with NCI-H226 lung; 6.2 µM with PC-3 prostate; 4.79 µM in the assay on SF-268 CNS; 3.07 µM with SF-295 CNS. The TGI in the assay with SK-OV-3 ovarian was determined as 14.1 µM; in the assay with SNB-19 CNS, 4.26 µM.
Regarding `OC(Cc1ccccc1)(Cc1ccccc1)c1ccccc1`, the TGI was 33.5 µM in the assay on ACHN renal; 50.4 µM in the assay with HCT-15 colon; 34.9 µM with HT29 colon; over 100 µM in the assay with MOLT-4 leukemia; 34.2 µM in the assay on NCI-H226 lung; 34.4 µM in the assay on PC-3 prostate. Also, the TGI in the assay with SF-268 CNS amounted to 29.8 µM; with SF-295 CNS it was 34.9 µM; with SNB-19 CNS it was 67.9 µM.
Regarding `COc1ccc(-c2nn(-c3ccc(NC(=O)Nc4ccc(Cl)c(Cl)c4)cc3)cc2-c2ccncc2)cc1Cl`, the GI50 was 2.27 µM in the assay with ACHN renal; 1.7 µM in the assay on HCT-15 colon; 2.55 µM in the assay on HT29 colon; 1.89 µM with MOLT-4 leukemia; 3.49 µM in the assay with NCI-H226 lung; 1.29 µM with PC-3 prostate. Moreover, the GI50 was 4.19 µM in the assay on SF-268 CNS, 2.21 µM with SF-295 CNS and 3.36 µM with SNB-19 CNS. For the same compound, the TGI with ACHN renal is over 100 µM; with HCT-15 colon, over 100 µM; in the assay on HT29 colon it was over 100 µM; with MOLT-4 leukemia, over 100 µM; in the assay on NCI-H226 lung it was over 100 µM; in the assay with PC-3 prostate it was 14.4 µM. Besides, the TGI in the assay on SF-268 CNS, in the assay on SF-295 CNS and in the assay on SNB-19 CNS was over 100 µM in each case.
In the case of `C[N+]1(C)CCOC(O)(c2ccccc2)C1` (stereo not drawn), the TGI with ACHN renal, in the assay with HCT-15 colon, in the assay on HT29 colon, in the assay with MOLT-4 leukemia, in the assay with NCI-H226 lung and in the assay with PC-3 prostate was over 100 µM each time. The TGI in the assay with SF-268 CNS, in the assay on SF-295 CNS, in the assay with SK-OV-3 ovarian and with SNB-19 CNS was over 100 µM each time.
Turning to `Cc1ccc(P(c2ccc(C)cc2)c2ccc(C)cc2)cc1`, the TGI with ACHN renal is over 100 µM; in the assay on HCT-15 colon it was over 100 µM; in the assay on HT29 colon it was over 100 µM; with MOLT-4 leukemia, 44.5 µM; in the assay with PC-3 prostate, over 100 µM; in the assay on SF-268 CNS, over 100 µM. The TGI was over 100 µM with SF-295 CNS, 95.9 µM with SK-OV-3 ovarian and over 100 µM in the assay on SNB-19 CNS.
Consider `CCN(CC)C(=S)SC(=S)N(CC)CC`, for which the TGI in the assay on ACHN renal is over 100 µM; in the assay on HCT-15 colon it was over 100 µM; with MOLT-4 leukemia, over 72.8 µM; in the assay with NCI-H226 lung, over 100 µM; with PC-3 prostate, over 100 µM; with SF-268 CNS, over 100 µM. The TGI in the assay on SF-295 CNS, with SK-OV-3 ovarian and in the assay with SNB-19 CNS was over 100 µM each time.
`CC(C)(C)C1(c2ccc(C3(c4ccccc4)Oc4ccccc4S3)[nH]2)Oc2ccccc2S1` (stereo not drawn): the TGI in the assay on ACHN renal, in the assay on HCT-15 colon, with HT29 colon, in the assay with MOLT-4 leukemia, in the assay on NCI-H226 lung and in the assay on SF-268 CNS was over 100 µM each time. Also, the TGI with SF-295 CNS, with SK-OV-3 ovarian and in the assay on SNB-19 CNS was over 100 µM in each case.
As to `O=Nc1ccc(O)c2ncccc12`, the TGI with ACHN renal was 14.5 µM; with HCT-15 colon, 12.9 µM; in the assay on HT29 colon, 34.6 µM; with MOLT-4 leukemia, over 100 µM; in the assay with NCI-H226 lung it was 42.8 µM; in the assay with PC-3 prostate, 29.8 µM. The TGI turned out to be 17.2 µM with SF-268 CNS, 36 µM in the assay with SF-295 CNS, 31.3 µM in the assay on SK-OV-3 ovarian and 74.7 µM with SNB-19 CNS.
Turning to `COC1/C=C\OC2(C)Oc3c(C)c(O)c4c(O)c(c(/C=N\OCCCc5ccccc5)c(O)c4c3C2=O)NC(=O)/C(C)=C\C=C/C(C)C(O)C(C)C(O)C(C)C(OC(C)=O)C1C` (stereo not drawn), the TGI with ACHN renal was 7.39 µM; in the assay on HCT-15 colon, 11 µM; with HT29 colon, 11.3 µM; with MOLT-4 leukemia it was 10.5 µM; in the assay on NCI-H226 lung it was 7.09 µM; in the assay with PC-3 prostate, 11.2 µM. The TGI is 18.3 µM with SF-268 CNS, 16.3 µM in the assay on SF-295 CNS, 15.4 µM with SK-OV-3 ovarian and 19.7 µM in the assay on SNB-19 CNS.
Consider `N=C(N)c1ccc(-c2ccc(-c3cncc4ccccc34)s2)cc1F`, for which the GI50 in the assay on HCT-15 colon was 1.75 µM; in the assay on HT29 colon, 1.68 µM; in the assay on SF-295 CNS, 1.72 µM; with SK-OV-3 ovarian, 1.84 µM. Moreover, the TGI in the assay on HCT-15 colon turned out to be 3.64 µM; with HT29 colon, 4.48 µM; in the assay on SF-295 CNS, 3.27 µM; with SK-OV-3 ovarian it was 3.63 µM.
`C=C(C)C(=O)OC1C(C(C)CCCO)=C(CO)CC2OC(=O)C(=C)C21` (stereo not drawn): the TGI is 79.8 µM with ACHN renal; 26.9 µM with HCT-15 colon; 45.9 µM with HT29 colon; 88.9 µM in the assay on MOLT-4 leukemia; over 100 µM in the assay on NCI-H226 lung; 76.6 µM with PC-3 prostate. The TGI in the assay on SF-268 CNS is 48.8 µM; in the assay with SF-295 CNS, over 100 µM; in the assay with SK-OV-3 ovarian, 95.7 µM; in the assay on SNB-19 CNS, over 100 µM.
On to `Nc1ccc(OCC(O)N2C(=O)c3ccccc3C2=O)cc1` (stereo not drawn), for which the TGI in the assay with ACHN renal, with HCT-15 colon, in the assay with HT29 colon, in the assay on MOLT-4 leukemia, in the assay on PC-3 prostate and in the assay on SF-268 CNS was over 100 µM each time. Further, the TGI in the assay on SF-295 CNS, in the assay with SK-OV-3 ovarian and in the assay with SNB-19 CNS was over 100 µM throughout.
